PubChem BioAssay AID330 (DTP/NCI, 2004)
Where “and” joins values, the source holds several entries; their conditions need not be identical. Equal entries are not always repeated. Toxic doses and inconclusive results are not listed. Square brackets hold non-standard residues; d marks the D form. Peptide text beside a SMILES is read from it. ξ: configuration not given here. ξhCys = NC(CCS)C(=O)O

Tested on: P388 leukemia ip, CD2F1 mice, survival T/C
Test: NCI In Vivo Anticancer Drug Screen. Data for tumor model P388 Leukemia (intraperitoneal) in CD2F1 (CDF1) mice
Conditions: endpoint: median survival time, higher = longer survival
Method in brief: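 Mice carrying the transplanted tumor received test compound or vehicle. Survival was recorded in each group, and the value is the treated-group measurement divided by that of the vehicle-treated control group.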

[1] = dose: 25.0 mg/kg/injection, schedule: Q01DX005 (ip), vehicle: Klucel (hydroxypropylcellulose) (HPC)
[2] = dose: 50.0 mg/kg/injection, schedule: Q01DX005 (ip), vehicle: Klucel (hydroxypropylcellulose) (HPC)
[3] = dose: 50.0 mg/kg/injection, schedule: Q01DX009 (ip), vehicle: saline
[4] = dose: 100.0 mg/kg/injection, schedule: Q01DX009 (ip), vehicle: saline

With `CCN(CC)CCCC(C)NC(=O)Cc1cc(O)c2c(c1O)C(=O)c1ccccc1C2=O` (configuration not stated) the T/C (dose: 2.5 mg/kg/injection, schedule: Q01DX009 (ip), vehicle: water) was 108 % of control and 112 % of control, the T/C (dose: 5.0 mg/kg/injection, schedule: Q01DX009 (ip), vehicle: water) was 102 % of control and 110 % of control and the T/C (dose: 10.0 mg/kg/injection, schedule: Q01DX009 (ip), vehicle: water) was 99 % of control and 103 % of control and 97 % of control. The T/C (dose: 20.0 mg/kg/injection, schedule: Q01DX009 (ip), vehicle: water) was 99 % of control and 110 % of control and 93 % of control, the T/C (dose: 40.0 mg/kg/injection, schedule: Q01DX009 (ip), vehicle: water) was 102 % of control and 113 % of control and the T/C (dose: 80.0 mg/kg/injection, schedule: Q01DX009 (ip), vehicle: water) was 108 % of control.
For `NNC(=O)N/N=C/c1ccccc1Cl`, the T/C [1] was 96 % of control and the T/C [2] was 112 % of control.
In the case of `CC[As](CC)SCC1OC(OC(C)=O)C(OC(C)=O)C(OC(C)=O)C1OC(C)=O` (configuration not stated), the T/C (dose: 50.0 mg/kg/injection, schedule: Q01DX009 (ip), vehicle: saline + alcohol) is reported as 99 % of control, the T/C [3] is reported as 110 % of control and the T/C (dose: 100.0 mg/kg/injection, schedule: Q01DX009 (ip), vehicle: saline + alcohol) is reported as 100 % of control. The T/C [4] was 113 % of control and the T/C (dose: 200.0 mg/kg/injection, schedule: Q01DX009 (ip), vehicle: saline + alcohol) was 109 % of control.
`Cc1cc(NCCCCNCCCNc2cc(C)nc3cc([N+](=O)[O-])ccc23)c2ccc([N+](=O)[O-])cc2n1` was tested, and the T/C (dose: 12.5 mg/kg/injection, schedule: Q01DX009 (ip), vehicle: other) was 150 % of control.
In the case of `CCSCCC(NC(=O)CN)C(=O)O` (configuration not stated) (H-Gly-[ξhCys](Et)-OH), the T/C [3] is reported as 112 % of control and the T/C [4] is reported as 94 % of control.
In the case of `NC1=NN(S(=O)(=O)c2ccc(Cl)cc2)CC1`, the T/C [2] is reported as 96 % of control, the T/C (dose: 100.0 mg/kg/injection, schedule: Q01DX005 (ip), vehicle: Klucel (hydroxypropylcellulose) (HPC)) is reported as 88 % of control and the T/C (dose: 200.0 mg/kg/injection, schedule: Q01DX005 (ip), vehicle: Klucel (hydroxypropylcellulose) (HPC)) is reported as 90 % of control.
For `COc1cc(OC2OC(CO)C(O)C(O)C2O)ccc1/C=C\C(=O)c1ccc(OC2OC(CO)C(O)C(O)C2O)cc1` (configuration not stated), the T/C (dose: 100.0 mg/kg/injection, schedule: Q04DX002 (ip), vehicle: saline with Tween-80) was 91 % of control, the T/C (dose: 200.0 mg/kg/injection, schedule: Q04DX002 (ip), vehicle: saline with Tween-80) was 96 % of control and the T/C (dose: 400.0 mg/kg/injection, schedule: Q04DX002 (ip), vehicle: saline with Tween-80) was 96 % of control.
For `C=CCOc1cc2c(cc1C(C)c1ccc(OC)cc1)OCO2` (configuration not stated), the T/C [1] was 104 % of control and 116 % of control, the T/C (dose: 100.0 mg/kg/injection, schedule: Q01DX005 (ip), vehicle: saline with Tween-80) was 100 % of control and 109 % of control and the T/C (dose: 200.0 mg/kg/injection, schedule: Q01DX005 (ip), vehicle: Klucel + Tween-80) was 202 % of control. The T/C (dose: 200.0 mg/kg/injection, schedule: Q01DX005 (ip), vehicle: saline with Tween-80) was 106 % of control and 112 % of control, the T/C (dose: 500.0 mg/kg/injection, schedule: Q01DX001 (ip), vehicle: saline with Tween-80) was 96 % of control and the T/C (dose: 800.0 mg/kg/injection, schedule: Q01DX005 (ip), vehicle: saline with Tween-80) was 184 % of control. For the same compound, the T/C (dose: 1000.0 mg/kg/injection, schedule: Q01DX001 (ip), vehicle: saline with Tween-80) was 122 % of control.
`Nc1c(Br)cc2c(c1Br)Cc1cc([N+](=O)[O-])ccc1-2` was tested, and the T/C (dose: 31.3 mg/kg/injection, schedule: Q01DX010 (ip), vehicle: saline) was 90 % of control, the T/C (dose: 62.5 mg/kg/injection, schedule: Q01DX010 (ip), vehicle: saline) was 100 % of control and the T/C (dose: 125.0 mg/kg/injection, schedule: Q01DX010 (ip), vehicle: saline) was 105 % of control. The T/C (dose: 250.0 mg/kg/injection, schedule: Q01DX010 (ip), vehicle: saline) was 110 % of control.
For `O=C(O)c1ccc(Cl)c(Cl)c1`, the T/C (dose: 12.5 mg/kg/injection, schedule: Q01DX009 (ip), vehicle: Klucel (hydroxypropylcellulose) (HPC)) was 101 % of control, the T/C (dose: 25.0 mg/kg/injection, schedule: Q01DX009 (ip), vehicle: Klucel (hydroxypropylcellulose) (HPC)) was 110 % of control and the T/C (dose: 50.0 mg/kg/injection, schedule: Q01DX009 (ip), vehicle: Klucel (hydroxypropylcellulose) (HPC)) was 99 % of control. For the same compound, the T/C (dose: 100.0 mg/kg/injection, schedule: Q01DX009 (ip), vehicle: Klucel (hydroxypropylcellulose) (HPC)) was 108 % of control.
With `COCc1nnc2c(N)nccn12` the T/C (dose: 100.0 mg/kg/injection, schedule: Q01DX001 (ip), vehicle: Klucel (hydroxypropylcellulose) (HPC)) was 99 % of control and the T/C (dose: 200.0 mg/kg/injection, schedule: Q01DX001 (ip), vehicle: Klucel (hydroxypropylcellulose) (HPC)) was 93 % of control.
With `CCSC(=O)OCC(C)([N+](=O)[O-])[N+](=O)[O-]` the T/C (dose: 100.0 mg/kg/injection, schedule: Q04DX003 (ip), vehicle: saline) was 94 % of control, the T/C (dose: 200.0 mg/kg/injection, schedule: Q04DX003 (ip), vehicle: saline) was 94 % of control and the T/C (dose: 400.0 mg/kg/injection, schedule: Q04DX003 (ip), vehicle: saline) was 100 % of control.
